# Data reported in US20090143456A1, “Polyamine Analogs as Modulators of Cell Migration and Cell Motility” (priority 2005, published 2009).
# System: Human glioblastoma SNB19 cells
# Assay: LIVE/DEAD reagent staining to assess compound toxicity at end of migration assay
# Assay type: cell-based
# Method: The 96 well slides were first coated with 0.1 μg/ml laminin, a motility stimulating substrate, in PBS for 1 hour at 37° C., rinsed three times in PBS, and then treated with 0.1% BSA in PBS for 1 hour at room temperature. Human glioblastoma SNB19 cells were plated at 3,000 cells per sedimentation channel and incubated overnight to allow cell sedimentation and attachment to the substrate. After removal of the manifold, the cells were treated with the compounds either at 0, 0.1 μM, 1 μM or […]. The experiment was done in duplicate with appropriate controls on each slide. After adding the compounds, the diameter of each cell population was initially measured using an inverted microscope and image analysis software (Scion Image Corp, Frederick, Md.). Cells were incubated an additional 72 hours in the presence (or not) of the pharmacological compounds. The diameter of each cell population was again assessed at 24 hours, 48 hours and 72 hours to calculate the overall migration rate. Migration results were reported as the specific radial movement (μm/day) of the cell population. […] At the end of the assay, cells were rinsed with PBS, then treated with LIVE/DEAD reagent staining (Molecular Probes, Eugene, Oreg.) to assess compound toxicity.
# FIGS. 1-38 show data for the activity of compounds in the migration assay. […]
compound,measurement,setting,value
"c1ccc(C2(NCCCCNCC3CC3CNCCCCNC3(c4ccccc4)CC3)CC2)cc1 (centres unmarked) [SL-11255, 1,2-bis((1-phenylcyclopropylaminobutyl)aminomethyl)cyclopropane]",cytotoxic effects (Live/Dead assay),"10 μM, at time of staining (end of 72 hour assay)",severe cytotoxic effects
same,toxicity (Live/Dead assay),lower concentrations (below 10 μM),not toxic
